Consider three molecules from article PMC3625961 (Synapse (New York, N.Y.), 2011).

Where a chain is given by its changes, count along the chain named. Where only a bound is given, the exact number is not on record here.

What is called Ki is a measure of affinity in units of concentration, obtained from inhibition or displacement. A word on the Kd: it is a measure of binding affinity in units of concentration.

For data set [1], the target named is CRF2 R (Rattus norvegicus, UniProt P47866). Nature of the data set: In vitro autoradiography competition with [125I]Sauvagine, rat choroid plexus. The format is binding. To be noted: read-out: Rat choroid plexus Ki; [125I] Sauvagine 0.1 nM; n=3.
Chain of CRF2 R (P47866 1-431 isoform P47866-2): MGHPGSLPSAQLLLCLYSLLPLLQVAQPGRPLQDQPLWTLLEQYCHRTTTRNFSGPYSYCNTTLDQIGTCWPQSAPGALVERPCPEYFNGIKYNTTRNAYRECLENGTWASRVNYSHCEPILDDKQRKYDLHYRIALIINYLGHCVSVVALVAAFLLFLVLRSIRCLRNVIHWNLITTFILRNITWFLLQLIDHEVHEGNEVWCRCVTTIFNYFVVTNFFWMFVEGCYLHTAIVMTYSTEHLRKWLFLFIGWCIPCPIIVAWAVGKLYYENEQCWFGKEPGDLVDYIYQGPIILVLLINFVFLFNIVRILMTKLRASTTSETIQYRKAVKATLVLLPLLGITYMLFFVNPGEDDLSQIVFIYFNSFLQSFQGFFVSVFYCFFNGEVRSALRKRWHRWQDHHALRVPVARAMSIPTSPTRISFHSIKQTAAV
The target of data set [2] is T1, CRF1 receptors (Rattus norvegicus, UniProt P35353).
T1 sequence (P35353 24-415): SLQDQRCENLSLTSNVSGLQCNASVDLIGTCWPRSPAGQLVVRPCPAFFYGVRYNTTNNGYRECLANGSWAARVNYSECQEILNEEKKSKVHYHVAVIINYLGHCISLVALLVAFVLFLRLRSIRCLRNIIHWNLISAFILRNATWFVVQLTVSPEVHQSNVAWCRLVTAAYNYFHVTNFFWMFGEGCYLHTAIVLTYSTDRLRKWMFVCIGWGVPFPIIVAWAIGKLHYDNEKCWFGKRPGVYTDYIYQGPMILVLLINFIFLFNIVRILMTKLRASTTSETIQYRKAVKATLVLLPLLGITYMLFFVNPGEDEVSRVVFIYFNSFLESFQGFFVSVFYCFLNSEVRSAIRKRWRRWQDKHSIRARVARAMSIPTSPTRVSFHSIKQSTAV
Nature of the data set: In vitro autoradiography competition with [125I]Sauvagine, rat frontal cortex. The class given is binding.

Data set [3] addresses T2, CRF1 receptor (Macaca mulatta, UniProt Q76LL8).
T2 sequence (Q76LL8 24-415): T1 sequence (P35353 24-415) with R6H, N9S, T13A, V16I, V153M, A163G, V209I, H229Y, R356H
The class given is binding, rhesus monkey.

In data set [4] the target is T2, CRF1 receptor. Kind of data set: In vitro autoradiography with radioligand. The class given is binding, rhesus monkey. To be noted: saturation, ROIs in monkey prefrontal/frontal cortex; n=3.
For data set [5], the system named is P-gp. To be noted: ref Kiesewetter et al., 2003; cited from earlier work.
Setting [6] is: monkey frontal cortex, [125I]o-CRH.

Turning to `COCCN(CCOC)c1nc(C)nc2c(-c3c(OC)cc(Br)cc3OC)c(C)nn12` [4-Br-BMK-152, [8-(4-bromo-2,6-dimethoxyphenyl)-2,7-dimethylpyrazolo[1,5-α][1,3,5]triazin-4-yl]-N,N-bis-(2-methoxyethyl)amine], the inhibition constant (Ki) in data set [1] is over 1000 nM; in data set [2] (read-out: Rat Frontal Cortex Ki, [125I] Sauvagine 0.1 nM, mean ± SD, n=3), 0.15 ± 0.05 nM; in data set [3] (read-out: Rhesus Frontal Cortex Ki, [125I]-oCRH 0.125 nM, mean ± SD, n=3) it was 0.35 ± 0.05 nM. For the same molecule, the “greater affinity compared to o-CRH” value in data set [2] (rat frontal cortex, [125I]Sauvagine) is on record as 5 fold; in data set [3] (setting [6]), 4 fold. The “greater affinity compared to 3-Br-BMK” value in data set [3] (setting [6]) is 70 fold.

In data set [4], `CC[C@H](C)[C@H](NC(=O)[C@H](CC(=O)O)NC(=O)[C@H](CC(C)C)NC(=O)[C@H](CC(C)C)NC(=O)[C@H](CCCCN)NC(=O)[C@H](CCCNC(=N)N)NC(=O)[C@H](CC(N)=O)NC(=O)[C@H](CO)NC(=O)[C@H](Cc1c[nH]cn1)NC(=O)[C@H](C)NC(=O)[C@H](CCC(N)=O)NC(=O)[C@H](CCC(N)=O)NC(=O)[C@H](C)NC(=O)[C@H](CC(C)C)NC(=O)[C@H](CCC(N)=O)NC(=O)[C@H](CC(=O)O)NC(=O)[C@H](C)NC(=O)[C@H](CCCCN)NC(=O)[C@@H](NC(=O)[C@H](CCSC)NC(=O)[C@H](CCC(=O)O)NC(=O)[C@H](CC(C)C)NC(=O)[C@@H](NC(=O)[C@H](CCC(=O)O)NC(=O)[C@H](CCCNC(=N)N)NC(=O)[C@H](CC(C)C)NC(=O)[C@H](CC(C)C)NC(=O)[C@H](Cc1c[nH]cn1)NC(=O)[C@H](Cc1ccccc1)NC(=O)[C@@H](NC(=O)[C@H](CC(C)C)NC(=O)[C@H](CC(=O)O)NC(=O)[C@H](CC(C)C)NC(=O)[C@H](CO)NC(=O)[C@@H](NC(=O)[C@@H]1CCCN1C(=O)[C@@H]1CCCN1C(=O)[C@H](CCC(=O)O)NC(=O)[C@H](CCC(N)=O)NC(=O)[C@H](CO)NC(=O)[C@@H](N)Cc1ccc(O)c(I)c1)[C@@H](C)CC)[C@@H](C)O)C(C)C)[C@@H](C)O)C(=O)N[C@@H](C)C(N)=O` [[^125I]o-CRH] gave a dissociation constant (Kd) of 0.68 ± 0.22 nM.

With `CC(=O)O[C@H]1C(=O)[C@@]2(C)[C@H]([C@H](OC(=O)c3ccccc3)[C@]3(O)C[C@H](OC(=O)[C@H](O)[C@@H](NC(=O)c4ccccc4)c4ccccc4)C(C)=C1C3(C)C)[C@]1(OC(C)=O)CO[C@@H]1C[C@@H]2O` [paclitaxel], the “increase in P-gp KO mice compared to WT mice” value in data set [5] is listed as 640%.
